Measurements reported in patent US11981680B2, “Substituted thienopyrroles as PAD4 inhibitors” (BRISTOL-MYERS SQUIBB COMPANY, priority 2018, dated 2024).

Each compound was assayed against human PAD4 (hPAD4) (Homo sapiens (Human), UniProt Q9UM07) (assay: RFMS Human PAD4 Functional Assay). Conditions: rapid-fire mass spectrum (RFMS) assay; 5 nM hPAD4 enzyme, 250 μM BAEE, 30 min preincubation at 37° C.
Format: biochemical
Description: Compounds of the present invention were assayed as inhibitors of PAD4 using the assay protocol described below.
RFMS Human PAD4 Functional Assay:
Compounds were solubilized in 100% DMSO to achieve a10 mM compound concentration. Compound stock solutions were stored at RT. A series of dilutions were prepared in DMSO and mixed 8 times with 20 μL mixing volume. Final top concentration of compound in the assay is 50 μM. Final assay conditions were as follows: • Reaction volume: 26 μl • Assay buffer: 25 mM hepes, pH 7.5, 5 mM NaCl, 1 mM DTT, 0.2 mg/ml BSA, 0.01% CHAPS, 50 μM Calcium, and 5 μM TPEN • Final concentrations: 5 nM hPAD4 enzyme, 250 μM BAEE, and 0.5% DMSO • Total incubation time: 30 mins compound and enzyme preincubation at 37° C., 90 min enzyme/substrate reaction, 30 min reaction with phenyl glyoxal at 37° C. • Stop solution: 40 μl 5% TCA in ACN
0.13 μL of compound solution was added to 13 μL of 10 nM PAD4 in assay buffer. After 30 min 13 μl of 500 μM of BAEE was added in 25 mM hepes, pH 7.5, 5 mM NaCl, 1 mM DTT, 0.2 mg/ml BSA, 0.01% CHAPS, 50 μM Calcium, 5 μM TPEN was added and the reaction incubated for 90 min at 37° C. The enzymatic reaction was quenched by addition of 15 μl of 6.1N TCA, 100% Final Concentration is 20%, 35 μl of 8.5 mM phenyl glyoxal (final concentration 4 mM) is then added and the reaction is incubated for 30 min at 37° C.
After 30 minutes the plates are spun down to remove all precipitate. The enzyme reaction was quenched with an equal volume of methanol containing internal standard (modified citrulline). Samples were loaded onto the Rapid Fire RF300 system (Agilent) wherein they were first sipped for 1000 ms and then directly loaded to a C18 separations cartridge using a mixture of acetonitrile containing 0.01% formic acid for 3000 ms desalting. The flow rate of the mobile phase was 1.5 ml/min. Once the samples were eluted from the cartridge, a mobile phase of acetonitrile containing 0.01% formic acid was used to move the samples into the mass spectrometer for 4000 ms at a flow rate of 1.25 ml/min/Sciex API5500 triple quadrupole mass spectrometer (Applied Biosystems) equipped with ESI was used to analyze the peptidyl citrulline and internal standard ions.
MRM transition of product and internal standard were monitored at m/z 424.5 to 350.4 and m/z 293 to 247 respectively. The dwell time for each transition was set at 200 ms, and the ESI voltage was used at 5500 with a source temperature of 400° C. Extracted ion peaks for each transition were integrated using the Rapid Fire Integrator software. Peak area of analyte was normalized with internal standard.).

Chain of human PAD4 (hPAD4) (Q9UM07 whole entry): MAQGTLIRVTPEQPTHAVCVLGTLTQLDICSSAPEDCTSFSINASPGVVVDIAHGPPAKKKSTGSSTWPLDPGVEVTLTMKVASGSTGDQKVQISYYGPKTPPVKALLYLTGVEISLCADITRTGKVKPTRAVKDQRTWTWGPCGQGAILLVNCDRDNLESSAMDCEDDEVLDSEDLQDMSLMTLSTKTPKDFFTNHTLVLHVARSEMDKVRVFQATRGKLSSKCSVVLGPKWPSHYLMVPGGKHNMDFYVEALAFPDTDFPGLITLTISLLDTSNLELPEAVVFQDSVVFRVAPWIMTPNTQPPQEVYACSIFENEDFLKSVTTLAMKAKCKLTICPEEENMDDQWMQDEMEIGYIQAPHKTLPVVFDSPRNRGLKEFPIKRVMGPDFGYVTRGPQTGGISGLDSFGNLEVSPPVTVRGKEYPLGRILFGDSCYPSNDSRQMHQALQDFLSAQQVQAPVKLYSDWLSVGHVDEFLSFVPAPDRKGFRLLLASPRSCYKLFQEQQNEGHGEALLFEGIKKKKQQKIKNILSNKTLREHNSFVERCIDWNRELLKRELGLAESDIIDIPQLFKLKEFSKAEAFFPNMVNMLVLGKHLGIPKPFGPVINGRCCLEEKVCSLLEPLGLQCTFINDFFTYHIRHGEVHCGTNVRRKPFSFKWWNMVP

| Compound | IC50 |
| --- | --- |
| COc1cc(C(=O)N2C[C@H]3CC[C@@H]2[C@@H]3N)cc2nc(-c3cc4scc(CC(CN)CCl)c4n3CC3CC3)n(C)c12 (stereo partly drawn) [Example 19, (2-(3-(3-amino-2-(chloromethyl)propyl)-4-(cyclopropylmethyl)-4H-thieno[3,2-b]pyrrol-5-yl)-7-methoxy-1-methyl-1H-benzo[d]imidazol-5-yl)((1R,4R,7R)-7-amino-2-azabicyclo[2.2.1]heptan-2-yl)methanone] | 70 nM |
| COc1cc(C(=O)N2C[C@H]3CC[C@@H]2[C@@H]3N)cc2nc(-c3cc4scc(C5CC6(CNC6)C5)c4n3CC3CC3)n(C)c12 [Example 20, ((1R,4R,7R)-7-amino-2-azabicyclo[2.2.1]heptan-2-yl)(2-(4-(cyclopropylmethyl)-3-(2-azaspiro[3.3]heptan-6-yl)-4H-thieno[3,2-b]pyrrol-5-yl)-7-methoxy-1-methyl-1H-benzo[d]imidazol-5-yl)methanone] | 36 nM |
| COc1cc(C(=O)N2C[C@H]3CC[C@@H]2[C@@H]3N)cc2nc(-c3cc4scc(C5CN(C(C)=O)C5)c4n3CC3CC3)n(C)c12 [Example 23, 1-(3-(5-(5-((1R,4R,7R)-7-amino-2-azabicyclo[2.2.1]heptane-2-carbonyl)-7-methoxy-1-methyl-1H-benzo[d]imidazol-2-yl)-4-(cyclopropylmethyl)-4H-thieno[3,2-b]pyrrol-3-yl)azetidin-1-yl)ethan-1-one] | 55 nM |
| COc1cc(C(=O)N2C[C@H]3CC[C@@H]2[C@@H]3N)cc2nc(-c3cc4sc(Br)cc4n3CC3CC3)n(C)c12 [Example 24, ((1R,4R,7R)-7-Amino-2-azabicyclo[2.2.1]heptan-2-yl)(2-(2-bromo-4-(cyclopropylmethyl)-4H-thieno[3,2-b]pyrrol-5-yl)-7-methoxy-1-methyl-1H-benzo[d]imidazol-5-yl)methanone] | 41 nM |
| COc1cc(C(=O)N2C[C@H]3CC[C@@H]2[C@@H]3N)cc2nc(-c3cc4sc(-c5ccncc5)cc4n3CC3CC3)n(C)c12 [Example 25, ((1R,4R,7R)-7-Amino-2-azabicyclo[2.2.1]heptan-2-yl)(2-(4-(cyclopropylmethyl)-2-(pyridin-4-yl)-4H-thieno[3,2-b]pyrrol-5-yl)-7-methoxy-1-methyl-1H-benzo[d]imidazol-5-yl)methanone] | 179 nM |
| COc1cc(C(=O)N2C[C@H]3CC[C@@H]2[C@@H]3N)cc2nc(-c3cc4sc(-c5cn[nH]c5)cc4n3CC3CC3)n(C)c12 [Example 26, ((1R,4R,7R)-7-amino-2-azabicyclo[2.2.1]heptan-2-yl)(2-(4-(cyclopropylmethyl)-2-(1H-pyrazol-4-yl)-4H-thieno[3,2-b]pyrrol-5-yl)-7-methoxy-1-methyl-1H-benzo[d]imidazol-5-yl)methanone] | 107 nM |
| COc1cc(C(=O)N2C[C@H]3CC[C@@H]2[C@@H]3N)cc2nc(-c3cc4sc(C)cc4n3CC3CC3)n(C)c12 [Example 27, ((1R,4R,7R)-7-amino-2-azabicyclo[2.2.1]heptan-2-yl)(2-(4-(cyclopropylmethyl)-2-methyl-4H-thieno[3,2-b]pyrrol-5-yl)-7-methoxy-1-methyl-1H-benzo[d]imidazol-5-yl)methanone] | 62 nM |
| COc1cc(C(=O)N2C[C@H](N)C[C@@H](F)C2)cc2nc(-c3cc4sc(C)cc4n3CC3CC3)n(C)c12 [Example 28, ((3R,5R)-3-amino-5-fluoropiperidin-1-yl)(2-(4-(cyclopropylmethyl)-2-methyl-4H-thieno[3,2-b]pyrrol-5-yl)-7-methoxy-1-methyl-1H-benzo[d]imidazol-5-yl)methanone] | 67 nM |
| COc1cc(C(=O)N2C[C@H]3CC[C@@H]2[C@@H]3N)cc2nc(-c3cc4sccc4n3CC3CC3)n(C)c12 [Example 29, ((1R,4R,7R)-7-amino-2-azabicyclo[2.2.1]heptan-2-yl)(2-(4-(cyclopropylmethyl)-4H-thieno[3,2-b]pyrrol-5-yl)-7-methoxy-1-methyl-1H-benzo[d]imidazol-5-yl)methanone] | 84 nM |
| COc1cc(C(=O)N2C[C@H](N)C[C@@H](F)C2)cc2nc(-c3cc4sccc4n3CC3CC3)n(C)c12 [Example 30, ((3R,5R)-3-amino-5-fluoropiperidin-1-yl)(2-(4-(cyclopropylmethyl)-4H-thieno[3,2-b]pyrrol-5-yl)-7-methoxy-1-methyl-1H-benzo[d]imidazol-5-yl)methanone] | 86 nM |
| COc1cc(C(=O)N2C[C@H](N)C[C@@H](F)C2)cc2nc(-c3cc4scc(Br)c4n3CC3CC3)n(C)c12 [Example 31, ((3R,5R)-3-amino-5-fluoropiperidin-1-yl)(2-(3-bromo-4-(cyclopropylmethyl)-4H-thieno[3,2-b]pyrrol-5-yl)-7-methoxy-1-methyl-1H-benzo[d]imidazol-5-yl)methanone] | 60 nM |
| COc1cc(C(=O)N2C[C@H]3CC[C@@H]2[C@@H]3N)cc2nc(-c3cc4scc(-c5cnn(C)c5)c4n3CC3CC3)n(C)c12 [Example 32, ((1R,4R,7R)-7-amino-2-azabicyclo[2.2.1]heptan-2-yl)(2-(4-(cyclopropylmethyl)-3-(1-methyl-1H-pyrazol-4-yl)-4H-thieno[3,2-b]pyrrol-5-yl)-7-methoxy-1-methyl-1H-benzo[d]imidazol-5-yl)methanone] | 17 nM |
| COc1cc(C(=O)N2C[C@H](N)C[C@@H](F)C2)cc2nc(-c3cc4scc(-c5cnn(C)c5)c4n3CC3CC3)n(C)c12 [Example 33, ((3R,5R)-3-amino-5-fluoropiperidin-1-yl)(2-(4-(cyclopropylmethyl)-3-(1-methyl-1H-pyrazol-4-yl)-4H-thieno[3,2-b]pyrrol-5-yl)-7-methoxy-1-methyl-1H-benzo[d]imidazol-5-yl)methanone] | 50 nM |
| COc1cc(C(=O)N2C[C@H]3CC[C@@H]2[C@@H]3N)cc2nc(-c3cc4scc(-c5ccn(C(C)C)n5)c4n3CC3CC3)n(C)c12 [Example 34, ((1R,4R,7R)-7-amino-2-azabicyclo[2.2.1]heptan-2-yl)(2-(4-(cyclopropylmethyl)-3-(1-isopropyl-1H-pyrazol-3-yl)-4H-thieno[3,2-b]pyrrol-5-yl)-7-methoxy-1-methyl-1H-benzo[d]imidazol-5-yl)methanone] | 48 nM |
| COc1cc(C(=O)N2C[C@H]3CC[C@@H]2[C@@H]3N)cc2nc(-c3cc4scc(-c5ccc(O)c(Cl)c5)c4n3CC3CC3)n(C)c12 [Example 35, ((1R,4R,7R)-7-amino-2-azabicyclo[2.2.1]heptan-2-yl)(2-(3-(3-chloro-4-hydroxyphenyl)-4-(cyclopropylmethyl)-4H-thieno[3,2-b]pyrrol-5-yl)-7-methoxy-1-methyl-1H-benzo[d]imidazol-5-yl)methanone] | 150 nM |
| COc1cc(C(=O)N2C[C@H]3CC[C@@H]2[C@@H]3N)cc2nc(-c3cc4scc(-c5ccc(O)c(F)c5)c4n3CC3CC3)n(C)c12 [Example 36, ((1R,4R,7R)-7-amino-2-azabicyclo[2.2.1]heptan-2-yl)(2-(4-(cyclopropylmethyl)-3-(3-fluoro-4-hydroxyphenyl)-4H-thieno[3,2-b]pyrrol-5-yl)-7-methoxy-1-methyl-1H-benzo[d]imidazol-5-yl)methanone] | 59 nM |
| COc1cc(C(=O)N2C[C@H]3CC[C@@H]2[C@@H]3N)cc2nc(-c3cc4scc(-c5ccn(C)n5)c4n3CC3CC3)n(C)c12 [Example 37, ((1R,4R,7R)-7-amino-2-azabicyclo[2.2.1]heptan-2-yl)(2-(4-(cyclopropylmethyl)-3-(1-methyl-1H-pyrazol-3-yl)-4H-thieno[3,2-b]pyrrol-5-yl)-7-methoxy-1-methyl-1H-benzo[d]imidazol-5-yl)methanone] | 54 nM |
| COc1cc(C(=O)N2C[C@H]3CC[C@@H]2[C@@H]3N)cc2nc(-c3cc4scc(-c5cccs5)c4n3CC3CC3)n(C)c12 [Example 38, ((1R,4R,7R)-7-amino-2-azabicyclo[2.2.1]heptan-2-yl)(2-(4-(cyclopropylmethyl)-3-(thiophen-2-yl)-4H-thieno[3,2-b]pyrrol-5-yl)-7-methoxy-1-methyl-1H-benzo[d]imidazol-5-yl)methanone] | 100 nM |
